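Five compound concentrations were applied to cells in 96-well plates for 48 hours; endpoints were derived by simple linear interpolation of the resulting dose-response curve. At the TGI there is no net growth.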
Assays:
Assay in all cases: growth of human tumour cells (NCI), 48 h
A498 renal = test system: A498 renal
SN12C renal = test system: SN12C renal
UACC-257 melanoma = test system: UACC-257 melanoma
OVCAR-4 ovarian = test system: OVCAR-4 ovarian
LOX IMVI melanoma = test system: LOX IMVI melanoma
SNB-78 CNS = test system: SNB-78 CNS
M19-MEL melanoma = test system: M19-MEL melanoma
U251 CNS = test system: U251 CNS
SF-295 CNS = test system: SF-295 CNS
T-47D breast = test system: T-47D breast
MDA-MB-435 = test system: MDA-MB-435

Row | Compound | TGI (A498 renal) [µM] | TGI (SN12C renal) [µM] | TGI (UACC-257 melanoma) [µM] | TGI (OVCAR-4 ovarian) [µM] | TGI (LOX IMVI melanoma) [µM] | TGI (SNB-78 CNS) [µM] | TGI (M19-MEL melanoma) [µM] | TGI (U251 CNS) [µM] | TGI (SF-295 CNS) [µM] | TGI (T-47D breast) [µM] | TGI (MDA-MB-435) [µM]
1 | C[N+](C)([O-])CCOc1cc2c(c3ccccc13)-c1ccccc1C2=O | 60.5 | 62.3 | 16.9 | 42.9 | > 47.4 | > 91.1 | 36.2 | 25.8 | > 72.1 | – | –
2 | O=C1OCC/C1=N/O | > 100 | > 100 | > 100 | > 100 | – | > 100 | > 100 | > 100 | > 100 | – | –
3 | Cc1c2cc[n+](C)c(C)c2cc2c1[nH]c1ccccc12 | > 100 | 8.54 | 65.8 | 43.3 | > 92.2 | 72.2 | 11.9 | 8.41 | 32.3 | 10.4 | > 75.2
4 | CCOC(=O)C1S/C(=N\C(=N)N[N+](=O)[O-])N=C1C (configuration not stated) | > 100 | > 100 | > 100 | > 100 | > 100 | – | > 100 | > 100 | > 100 | – | –
5 | Cc1ccc(/C=N\NC2c3cc(Cl)ccc3Nc3nc(=O)[nH]c(C)c32)cc1 (configuration not stated) | – | > 100 | > 100 | – | > 100 | > 100 | > 100 | > 100 | > 100 | – | –
6 | O=C(O)C(Cl)(Cl)Cl | – | > 100 | > 100 | > 100 | > 100 | > 100 | > 100 | > 100 | > 100 | – | –
7 | O=C(O)COc1ccccc1C(=O)Nc1ccccc1 | – | > 100 | > 100 | > 100 | > 100 | > 100 | > 100 | > 100 | > 100 | – | –
8 | CC(O)CNC(=O)C(C)Oc1ccc(OCC2CCCCC2)cc1 (configuration not stated) | > 100 | > 100 | > 100 | > 100 | > 100 | > 100 | > 100 | > 100 | > 100 | – | –
9 | CCOS(C)(=O)=O | > 100 | > 100 | > 100 | > 100 | > 100 | – | – | > 100 | > 100 | > 100 | > 100
10 | CC1(C)OC[C@@H](O)[C@H](C#N)CO1 | > 100 | > 100 | > 100 | > 100 | > 100 | – | – | > 100 | > 100 | > 100 | > 100
11 | S=C1NC2=C(CSC/C2=C\c2cccc(Br)c2)C(c2cccc(Br)c2)N1 (configuration not stated) | > 100 | > 100 | > 100 | > 100 | > 100 | – | – | > 100 | > 100 | > 100 | > 100
12 | CC1(C)[C@@H]2CC[C@@]1(C)CN(CCC[N+](C)(C)C)C2 | > 100 | > 100 | > 100 | > 100 | > 100 | – | – | > 100 | > 100 | > 100 | > 100
13 | Nc1ccc(N=Nc2c(S(=O)(=O)O)cc3ccccc3c2S(=O)(=O)O)cc1 | > 100 | > 100 | > 100 | > 100 | > 100 | – | – | > 100 | > 100 | > 100 | > 100
14 | O=c1oc2cc(O)ccc2c(O)c1C(c1ccccc1)c1c(O)c2ccc(O)cc2oc1=O | > 100 | > 100 | > 100 | > 100 | > 100 | – | – | > 100 | > 100 | > 100 | > 100

Source: PubChem BioAssay (NCI)
